The text below walks through data of patent US10286038B2, “Lysosome membrane protein 2 (LIMP-2) based peptides and related uses” (Northwestern University, priority 2016, dated 2019).

The target in one experiment is T1, GC in H4 cells (Homo sapiens, UniProt P04062).
T1 construct: Lysosomal GC activity of living H4 cells measured in vivo after incubation with uptake-optimized TAT-peptides; endogenous in cells; host or cells: H4 human neuroglioma cells (for the 74 h course: stably overexpressing α-synuclein)
T1 sequence (P04062 40-536): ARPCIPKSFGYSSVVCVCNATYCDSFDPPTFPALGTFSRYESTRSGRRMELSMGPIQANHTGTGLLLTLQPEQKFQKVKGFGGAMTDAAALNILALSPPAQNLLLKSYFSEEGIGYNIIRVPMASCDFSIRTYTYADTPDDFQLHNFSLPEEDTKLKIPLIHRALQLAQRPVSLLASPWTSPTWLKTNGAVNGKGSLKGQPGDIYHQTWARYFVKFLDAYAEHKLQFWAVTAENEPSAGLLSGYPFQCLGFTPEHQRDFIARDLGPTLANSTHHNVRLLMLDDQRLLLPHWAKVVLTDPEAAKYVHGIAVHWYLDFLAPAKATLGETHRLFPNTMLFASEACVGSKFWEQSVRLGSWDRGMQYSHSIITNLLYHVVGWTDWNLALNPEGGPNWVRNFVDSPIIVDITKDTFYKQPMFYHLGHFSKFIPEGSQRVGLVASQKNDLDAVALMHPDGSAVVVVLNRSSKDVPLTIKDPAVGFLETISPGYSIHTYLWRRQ
Kind of experiment: whole cell GC activity of H4 cell lysate over the 74 hrs time course. The experiment is classed as cell-based. Conditions: H4 cells incubated with TAT-peptide. As for the experimental part: FIG. 6: Characterization of a helical LIMP-2-derived peptide. […] B) In vitro peptide pulldown assay: helix 5 peptides were incubated with recombinant LAMAN and bovine serum albumin (BSA). INPUT and BOUND fractions were loaded onto SDS-PAGE and proteins visualized by coomassie staining (CBB). C) Densitometry of LAMAN and BSA protein bound to peptide, normalized to protein fraction bound to beads only (buffer; n=2-3). D) and E) Activity assay of recombinant (D) GC and (E) LAMAN incubated with different excess molarities (1×-10×) of helix 5 peptide (n=β-5) and LIMP-2 ectodomain (n=4). GC activities were normalized and statistical analyses compared to 0 input of BSA/helix 5 peptide. F) Peptide-pulldown of GC constructs overexpressed in N2a cells with subsequent Western blot analysis (α-hGC) utilizing helix 5 and the 3×D control peptide as a negative binding control. G) Densitometry of GC protein bound to peptides; each construct is normalized to buffer only. H) Live-cell lysosomal GC activity of H4 cells after uptake of helix 5 and 3×D TAT peptides. GC activity was measures every 30 minutes up to 3.5 hours. Cells were treated with DMSO or the “lysosomal inhibitor” bafilomycinA1. […] Lysosomal activity is calculated by subtracting the AUC of DMSO with the AUC of bafilomycinA1 treated samples (n=4). […] GC activity was measured from 16-74 hours and is shown in mU/mg (n=3). […]

For experiment [1], the target named is T2, recombinant α-mannosidase (LAMAN) (Homo sapiens, UniProt O00754).
T2 construct: purchased Zymenex, Hillerod, DK
T2 sequence (O00754 50-1011): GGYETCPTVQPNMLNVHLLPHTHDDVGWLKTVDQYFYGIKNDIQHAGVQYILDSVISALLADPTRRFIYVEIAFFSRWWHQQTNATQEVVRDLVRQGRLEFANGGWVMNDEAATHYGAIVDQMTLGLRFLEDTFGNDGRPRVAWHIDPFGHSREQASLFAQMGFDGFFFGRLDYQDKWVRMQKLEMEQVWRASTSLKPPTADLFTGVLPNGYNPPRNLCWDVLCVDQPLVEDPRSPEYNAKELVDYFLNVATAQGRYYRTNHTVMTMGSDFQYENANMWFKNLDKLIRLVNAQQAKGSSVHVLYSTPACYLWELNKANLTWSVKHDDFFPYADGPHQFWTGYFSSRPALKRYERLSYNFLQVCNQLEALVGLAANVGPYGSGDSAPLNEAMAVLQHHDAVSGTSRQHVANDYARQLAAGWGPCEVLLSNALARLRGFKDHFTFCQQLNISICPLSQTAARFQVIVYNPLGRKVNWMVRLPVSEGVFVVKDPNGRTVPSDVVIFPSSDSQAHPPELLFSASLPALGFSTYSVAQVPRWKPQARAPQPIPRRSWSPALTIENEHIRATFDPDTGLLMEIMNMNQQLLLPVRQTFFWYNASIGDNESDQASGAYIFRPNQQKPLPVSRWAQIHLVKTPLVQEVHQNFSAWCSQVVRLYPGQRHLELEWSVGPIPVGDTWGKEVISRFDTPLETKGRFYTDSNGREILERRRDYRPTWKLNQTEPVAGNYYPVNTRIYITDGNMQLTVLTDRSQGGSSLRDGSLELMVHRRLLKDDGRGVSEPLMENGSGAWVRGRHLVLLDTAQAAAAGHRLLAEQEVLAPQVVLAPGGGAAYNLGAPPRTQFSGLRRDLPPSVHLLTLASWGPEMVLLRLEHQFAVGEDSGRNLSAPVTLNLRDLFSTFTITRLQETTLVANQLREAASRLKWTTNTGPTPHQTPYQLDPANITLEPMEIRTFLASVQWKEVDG
Nature of the experiment: recombinant LAMAN activity assay. Format: biochemical. Conditions: 1×-10× molar excess, acid pH. From the text:
To determine the enzymatic activity of the recombinant enzymes, lyophilized enzymes were reconstituted in the NaPi buffer described above. The lyophilized samples of wild-type GC (Cerezyme®) and the custom-made recombinant N307S mutant enzyme contain 0.01% polysorbate 80 (Tween 80) (see prescription information for Cerezyme® at the website for Cerezyme®). As indicated in our experiments, the concentration of the detergent is sufficient to support active GC enzyme and to perform the in vitro GC activity assays without adding further detergents to the reaction mix. For enzyme activity assays of recombinant proteins, 0.1-0.2 nmol of GC (Cerezyme®; N370S) and LAMAN were used in the absence or presence of 10× the molar amount of LIMP-2-derived peptides (Table 1) or LIMP-2 ectodomain (1-2 nmol) (Table 3).
All activity assays were performed at acid pH.

Experiment [2] relates to endogenous GC in Cos 7 cells. Conditions: biotinylated peptide, neutral pH.
Protocol: For pulldown of endogenous and overexpressed GC from N2a cell lysates 20 nmol of LIMP-2-derived peptide (Helix 5 and 3×D) was incubated with 50 μl cell lysate at 4° C. overnight. The cells were harvested in EBC-buffer (Table 3). After blocking and equilibration of the streptavidin beads (see above) the cell lysate/peptide mixtures were added to the beads for 30 min. at room temperature. The supernatant was removed. After extensive washing of the beads with NaPhosphate buffer, the bound peptides and proteins were released from the beads by incubation with Laemmli buffer (see above). After centrifugation for 2 min. at 17,000×g the supernatant was removed (BOUND fraction) and subjected to SDS-Page and Western-blotting. An antibody against human GC (α-hGC, for details see Table 4) was used for detection.

For “Biotin-Ttds-KFERQLREIIEAMLKAYQQKLFVTHTVDEYGRKKRRQRRR [helix 5 TAT-peptide]”, the “enhancement of GC activity over the 74 hrs time course” value on GC in H4 cells is “persists”.
For the substance “Biotin-Ttds-LREIIEAMLKAYQQKLFVTHTVDE [helix 5 peptide]”, in experiment [1], the “effect on enzymatic activity of recombinant LAMAN” value is on record as “No effect”. In addition, the “co-precipitation of endogenous GC from cellular lysates” value in experiment [2] is listed as “specifically co-precipitated”.
